Test results from US5821330A, “Peptide having inflammation affinity and radioactive diagnostic containing the same” (Nihon Medi-Physics Co., Ltd., priority 1993, dated 1998).
Where “and” joins values, the source holds several entries; their conditions need not be identical. Identical values can stand only once. Ends that are not written are not given here. Peptide text beside a SMILES is read from it. * marks the point of attachment. Acm = CC(=O)NC*

Experiments:
[1] = Safety of the peptides: bolus tail vein administration to rat, observation until five days, dissection; format: in vivo; settings: for abnormality in tissue checked with the naked eye (hemostatis, pigmentation, discoloration): dissection five days after 8.3 μg per 1.0 g of rat; for abnormality in tissue checked with the naked eye (hemostatis, pigmentation, discoloration) / extreme change in weight, i.e., weight gain or loss: tail vein; for symptoms such as slobber, vomiting, ocular proptosis, and behavioral abnormality: just after bolus tail vein administration, 8.3 μg per 1.0 g of rat; for extreme change in weight, i.e., weight gain or loss: until five days after 8.3 μg per 1.0 g of rat
Method: Assuming that clinical dosage to human is 1.0 mg/60 kg, bolus administration of Peptide-1, Peptide 4 and Peptide-5 in an amount of 8.3 μg per 1.0 g of rat and physiological saline as control were made respectively to the tail vein of the rat. Immediately after the administration, behavior of the rat was observed. The observation was continued until five days later; zero minute, ten minutes, three hours, six hours, one day, two days, three days, four days, and five days later. Just after the peptide administration, symptoms such as slobber, vomiting, ocular proptosis, and behavioral abnormality were not observed. Furthermore, extreme change in weight, i.e., weight gain or loss was not observed until five days later. After weighing five days later, the rats were dissected. Abnormality in tissue was checked with the naked eye; abnormality in any tissue was not noted such as hemostatis, pigmentation, or discoloration. These gave estimation that more than 1,000 times administration of the assumed clinical dosage would be safe.

[2] = tested on: inflammation site of inflammation model rats; assay: Imaging of inflammation sites using indium-111 labeled peptide (turpentine oil inflammation model rats, gamma camera); format: in vivo, Sparague-Davley Rats; settings: 3.7-7.4 MBq tail vein, mean ± standard error, three rats
Method: Peptide-1-DTPA obtained in EXAMPLE 8, in an amount of 100 through 200 nmol was adjusted to pH 5.7 in a 0.1M citrate buffer solution, and then 37 to 74 MBq of indium (^111 In) chloride was added thereto. After agitation, the solution was left as such for 15 minutes. A part of the solution was taken and checked for the labeling percentage by electrophoresis. The radiochemical purity of the target compound was 98%. Peptide-3-Sulfo-SMCC-CHI-DTPA obtained in EXAMPLE 10 was also labeled with In-111 in the same way as above, and the radiochemical purity of the target compound was 90%.
(§1) To the right femoral part of Sparague-Davley Rats weighing about 220 g, 100 μl of turpentine oil was subcutaneously administered. After 24 hours, when inflammation was clearly observed, Ravonal anesthesia was applied; then, Peptide-1-DTPA-indium-111 and Peptide-3-Sulfo-SMCC-CHI-DTPA-indium-111 obtained in EXAMPLE 14 were respectively administered in an amount of 3.7 MBq-7.4 MBq to the respective tail vein. Images were obtained with gamma camera one, three, and six hours later. A site of interest was set on the image, where the ratio ([T]/[B] ratio) of total counts for the inflammation site [T] to total counts for the corresponding normal site of the opposite leg [B] was determined. The [T]/[B] ratio, one hour after the administration, was 2.63 for Peptide-1-DTPA-indium-111 and 2.09 for Peptide-3-DTPA-indium-111, whereby the focal site was evidently imaged.

[3] = tested on: inflammation site of inflammatory model rats; assay: Imaging of inflammation sites using technetium-99m labeled peptide (turpentine oil inflammation model rats, gamma camera); format: in vivo, Sparague-Davley Rats; settings: 37-74 MBq tail vein, mean ± standard error, three rats
Method: An amount of 240-300 nmol of Peptide-2 obtained in EXAMPLE 2 was taken into each vial, and a volume of a 0.1M phosphate buffer solution (pH 8.0) was added thereto to adjust the whole […] Atmosphere in the vial was replaced with argon; then 180-300 nmol of dithiothreitol was added thereto, The mixture was then allowed to react for one hour at room temperature. Next, 120 nmol of stannous chloride and 740-1110 MBq of sodium pertechnetate were added. The mixture was left for one hour under gentle agitation. Peptide-2 labeled with technetium-99m was yielded. Peptide labeled had radiochemical purity not less than 90%.
Experiments were made for all the peptides those prepared in EXAMPLEs 4, 5, 6 and 7. Each of the peptides was taken, in an amount of 0.2-1.0 μmol, into a vial respectively, and a volume of a 0.1M phosphate buffer solution (pH 8.0) was added thereto to adjust the whole volume to 500 μl. Atmosphere in the respective vial was replaced with argon. To each vial, 500 μl of 1.5-2.2 GBq/ml glucoheptanate labeled with technetium-99m yielded in EXAMPLE 16 was added and quickly agitated. Thereafter, the mixture was allowed to react for 20 minutes in a boiling water bath. Labeling percentage of all the experimented peptides after cooling was 90-95% according to TLC.
as §1
After Ravonal anesthesia was applied to the model rats described in EXAMPLE 18, 37-74 MBq of technetium-99m labeled Peptide-2 obtained in EXAMPLE 15, Peptide-4, Peptide-5, Peptide-6 and Peptide-7 obtained in EXAMPLE 17 were each administered to the respective tail vein. Images were obtained with gamma camera 30 minutes and one, three, and six hours later respectively. A site of interest was set on the image and the [T]/[B] ratio was determined. The [T]/[B] ratio, one hour after the administration, was 3.35 for Peptide-2, 4.98 for Peptide-6, 3.36 for Peptide-7, 4.27 for Peptide-4 and 4.41 for Peptide-5 whereby the focal site was evidently imaged.

[4] = tested on: focal region of model rats with infectious disease (Staphylococcus aureus); assay: Imaging of rat model with infectious disease (Staphylococcus aureus) using technetium-99m labeled peptide; format: in vivo, Sparague-Davely Rats; settings: 37-74 MBq tail vein, mean ± standard error
Method: In 1.0 mL of physiological saline, 10^8 of viable microbe cells of Staphylococcus aureus were suspended. An aliquot of 100 μl was administered intramuscularly to the right femoral region of Sparague-Davely Rats weighing about 220 g. After 24 hours, Ravonal anesthesia was applied to the model rats that had clearly evident inflammation; then, 37-74 MBq of technetium-99m labeled Peptide-6 obtained in […] was administered to the tail vein. Images were obtained with gamma camera one, three, and six hours later respectively. A site of interest was set on the image, and the [T]/[B] ratio was determined.

[5] = assumed clinical dosage to human 1.0 mg/60 kg, estimate from rat observation

## CC(C)C[C@H](NC(=O)[C@H](CC(C)C)NC(=O)[C@H](CCC(=O)O)NC(=O)[C@@H]1CCCN1C(=O)CNC(=O)CNC(=O)[C@@H](N)CCCCN)C(=O)NCC(=O)NCC(=O)N1CCC[C@H]1C(=O)N[C@@H](CO)C(=O)N[C@H](C(=O)O)C(C)C [Peptide-1, KGGPELLGGPSV] (H-KGGPELLGGPSV-OH)
[1]
  abnormality in tissue checked with the naked eye (hemostatis, pigmentation, discoloration): not noted
  symptoms such as slobber, vomiting, ocular proptosis, and behavioral abnormality: not observed
  extreme change in weight, i.e., weight gain or loss: not observed
[1]; rat, in vivo
  estimated safe administration relative to the assumed clinical dosage: more than 1,000 times

## CC(C)C[C@H](NC(=O)[C@@H](N)CC(C)C)C(=O)NCC(=O)NCC(=O)N1CCC[C@H]1C(=O)N[C@@H](CO)C(=O)N[C@H](C(=O)N[C@@H](CS)C(=O)O)C(C)C [Peptide-3, LLGGPSVC] (H-LLGGPSVC-OH)
[2]; 1 hr. after administration, inflammation site vs opposite normal leg
  [T]/[B] ratio of In-111 labeled peptides in inflammation model rats: 2.09 ± 0.18
[2]; 3 hrs. after administration
  [T]/[B] ratio of In-111 labeled peptides in inflammation model rats: 2.46 ± 0.29
[2]; 6 hrs. after administration
  [T]/[B] ratio of In-111 labeled peptides in inflammation model rats: 2.78 ± 0.15

## (PELLGGPSV)×4 in parallel (K)×2 in parallel (KGGC(Acm)GC(Acm)) (PELLGGPSVPELLGGPSVPELLGGPSVPELLGGPSVKKKGGC(Acm)GC(Acm); also: branched Lys scaffold carrying four PELLGGPSV arms) [Peptide-6]
[3]; 1 hr. after administration
  [T]/[B] ratio of Tc-99m labeled peptide in inflammatory model rats: 4.98 and 4.98 ± 0.23
[3]; 3 hrs. after administration
  [T]/[B] ratio of Tc-99m labeled peptide in inflammatory model rats: 4.61 ± 0.49
[3]; 6 hrs. after administration
  [T]/[B] ratio of Tc-99m labeled peptide in inflammatory model rats: 3.20 ± 0.39
[4]; 1 hr. after administration, S. aureus intramuscular, right femoral region
  [T]/[B] ratio of Tc-99m labeled peptide in model rats with infectious disease: 1.92 and 1.92 ± 0.10
[4]; 3 hrs. after administration, S. aureus model
  [T]/[B] ratio of Tc-99m labeled peptide in model rats with infectious disease: 1.58 ± 0.05
[4]; 6 hrs. after administration, S. aureus model
  [T]/[B] ratio of Tc-99m labeled peptide in model rats with infectious disease: 1.52 ± 0.17

## C(Acm) GC(Acm)GGGKEYKAKVSNKALPAPIEKTISK (C(Acm)GC(Acm)GGGKEYKAKVSNKALPAPIEKTISK; also: technetium-99m label) [Peptide-4]
[1]; [5]
  estimated safe administration relative to the assumed clinical dosage: more than 1,000 times
[1]
  abnormality in tissue checked with the naked eye (hemostatis, pigmentation, discoloration): not noted
  symptoms such as slobber, vomiting, ocular proptosis, and behavioral abnormality: not observed
  extreme change in weight, i.e., weight gain or loss: not observed
[3]; 30 mins after administration
  [T]/[B] ratio of Tc-99m labeled peptide in inflammatory model rats: 2.47 ± 0.17
[3]; 1 hr. after administration
  [T]/[B] ratio of Tc-99m labeled peptide in inflammatory model rats: 4.27 and 4.27 ± 0.26
[3]; 3 hrs. after administration
  [T]/[B] ratio of Tc-99m labeled peptide in inflammatory model rats: 3.10 ± 0.20

## C(Acm)GC(Acm)GGKTKPREQQYNSTYRVV (also: technetium-99m label) [Peptide-5]
[1]; [5]
  estimated safe administration relative to the assumed clinical dosage: more than 1,000 times
[1]
  abnormality in tissue checked with the naked eye (hemostatis, pigmentation, discoloration): not noted
  symptoms such as slobber, vomiting, ocular proptosis, and behavioral abnormality: not observed
  extreme change in weight, i.e., weight gain or loss: not observed
[3]; 30 mins after administration
  [T]/[B] ratio of Tc-99m labeled peptide in inflammatory model rats: 2.61 ± 0.08
[3]; 1 hr. after administration
  [T]/[B] ratio of Tc-99m labeled peptide in inflammatory model rats: 4.41 and 4.41 ± 0.62
[3]; 3 hrs. after administration
  [T]/[B] ratio of Tc-99m labeled peptide in inflammatory model rats: 3.85 ± 0.63

## C(Acm)GC(Acm)GG[(PELLGGPSV)×3 repeats in tandem]A (C(Acm)GC(Acm)GGPELLGGPSVPELLGGPSVPELLGGPSVA; also: technetium-99m label) [Peptide-7]
[3]; 1 hr. after administration
  [T]/[B] ratio of Tc-99m labeled peptide in inflammatory model rats: 3.36 and 3.36 ± 0.31
[3]; 3 hrs. after administration
  [T]/[B] ratio of Tc-99m labeled peptide in inflammatory model rats: 2.18 ± 0.39
[3]; 6 hrs. after administration
  [T]/[B] ratio of Tc-99m labeled peptide in inflammatory model rats: 2.26 ± 0.20

## CGCGGLLGGPSV (cysteine pairing not given here; also: technetium-99m label) [Peptide-2]
[3]; 1 hr. after administration
  [T]/[B] ratio of Tc-99m labeled peptide in inflammatory model rats: 3.35 and 3.35 ± 0.33
[3]; 3 hrs. after administration
  [T]/[B] ratio of Tc-99m labeled peptide in inflammatory model rats: 2.78 ± 0.23
[3]; 6 hrs. after administration
  [T]/[B] ratio of Tc-99m labeled peptide in inflammatory model rats: 2.82 ± 0.17
